Experimental data published in US20230143751A1, “Aromatic Compound And Use Thereof In Preparing Antineoplastic Drugs” (Shanghai Zheye Biotechnology Co. Ltd., priority 2020, published 2023).

Assays:
[1] = test system: MIA PaCa-2 cells; assay: Cell proliferation activity of MIA PaCa-2 by CellTiter-Glo reagent; format: cell-based; details: 72 h, CellTiter-Glo; for IC50: Homo sapiens, MIA PaCa-2, read-out: IC50 value of cell proliferation inhibitory activity of the compound on MIA PaCa-2
Method: (§1) MIA PaCa-2 cells in exponential growth phase were digested with trypsin-EDTA, plated in a 96-well plate with 2000-3000 cells per well, and incubated overnight at 37° C. with 5% CO2. Mother solutions were prepared from the test compounds by using DMSO, subjected to gradient elution with DMEM growth medium, and then added into the 96-well plate and incubated in an incubator for 72 h at 37° C. with 5% CO2. After the incubation, CellTiter-Glo test reagent with an equal volume was added into each well and the obtained 96-well plate was incubated after shaking. The chemiluminescence values were determined by microplate reader, and the IC50 values of the test compounds inhibiting the proliferation of MIA PaCa-2 cells were fitted and calculated by GraphPad Prism software.
The test method of inhibitory activity was the same as that in Test 2 in “Biological Tests” part.

[2] = Preliminary safety test, 5-day escalating oral dosing in Balb/c mice; format: in vivo; details: for water and food intake, activity and body weight during the administration period (in words): oral gavage once a day for 5 days, 200 to 800 mg/kg
Method: Test samples: Compound 3-2, Compound 3-6, Compound 3-12M, Compound 3-20, and Compound 4-8.
Animal species and number: Balb/c; 6 animals per group (half male and half female).
Administration mode: oral administration by gavage.
Animal grouping and administration dose: vehicle blank group, Compound 3-2 group (200 mg/kg, 400 mg/kg, 800 mg/kg), Compound 3-6 group (200 mg/kg, 400 mg/kg, 800 mg/kg), Compound 3-12M group (200 mg/kg, 400 mg/kg, 800 mg/kg), Compound 3-20 group (200 mg/kg, 400 mg/kg, 800 mg/kg), Compound 4-8 group (200 mg/kg, 400 mg/kg, 800 mg/kg).
Administration frequency: once a day for 5 days.
General clinical observations were performed 2 times a day (once in the morning and once in the afternoon) during the test period. Death, morbidity, respiration, secretions, feces, and diet, drinking situation and so on were observed, and the changes in body weight of the mice during the administration period were recorded. The animals in each group were euthanized after the administration, and all animals were dissected and subjected to gross observation.

[3] = test system: NCI-H358 cells; assay: Cell proliferation activity of NCI-H358 by CellTiter-Glo reagent; format: cell-based
Method: as §1, with “NCI-H358” for “MIA PaCa-2”, “Mother solutions were prepared from the test compounds by using DMSO, subjected to gradient elution with DMEM growth medium, and then added into the 96-well plate and incubated in an incubator for 72 h at 37° C. with 5% CO2.” left out
The test method of inhibitory activity was the same as that in Test 3 in “Biological Tests” part.

[4] = test system: MIA PaCa-2-derived xenograft tumor; assay: Pharmacodynamics test of MIA PaCa-2-derived xenograft tumor model in nude mice (test 6); format: in vivo
Method: Animal species and number: Balb/c Nude; 6 animals per group.
Test samples: Compound 3-2, Compound 3-6, Compound 3-20, Compound 3-12M.
Test groups: blank solvent control group; Compound 3-2 (10 mg/kg, QD×15 days), Compound 3-6 (10 mg/kg, QD×15 days), Compound 3-20 (10 mg/kg, QD×15 days), Compound 3-12M (10 mg/kg, QD×15 days).
Animal model establishment: MIA paca-2 tumor cells in logarithmic growth phase were cultured in vitro and collected, and inoculated subcutaneously into the right back of nude mice at a quantity of 5×10^6 cells/each. When the tumor volume reached 150-300 mm^3, the tumor-bearing nude mice were randomly grouped. Subsequently, the animals in each group were administered, and the day of the first administration was defined as day 1 of the test.
Administration route and frequency: oral administration by gavage; once a day.
General state observation: observation time and frequency: once a day; observation indexes or contents: including but not limited to administration location, appearance and signs, general behavioral activities, mental status, death and other abnormal performance of the animals. The animals were euthanized at the end of the test.
Tumor volume calculation: V=½×long diameter×short diameter^2 (mm^3). Tumor growth inhibition rate TGI (%) is used to evaluate the tumor inhibition efficacy of the compounds. TGI (%)=[1−(mean tumor volume in treatment group at the end of administration−mean tumor volume in treatment group at the beginning of administration)/(mean tumor volume in control group at the end of administration−mean tumor volume in control group at the beginning of administration)]×100%.

[5] = target: KRAS G12C (Homo sapiens, UniProt P01116, G12C); assay: Effect on KRAS(G12C) enzyme activity (KRAS G12C/c-Raf binding, Eu/d2 energy transfer); format: biochemical
Method: Compound stock solution was taken, and the test compound was subjected to gradient elution in DMSO. The above diluted compound was added into a quantitative volume of enzyme reaction buffer and subjected to oscillation on a microplate oscillator for 20 min.
4 μL of enzyme was transferred to a 384-well reaction plate. 1 μL of the test compound was added into the 384-well reaction plate. The plate was sealed with sealing film, and the reaction plate with the compound was centrifuged at 1000 rpm for 1 min and incubated for 60 min. 5 μL of a mixture of substrate and antibody was transferred to the 384-well reaction plate. The plate was sealed with sealing film, then centrifuged at 1000 rpm for 1 min and incubated for 120 min at room temperature.
Ratiopositive control: average value of the ratios of 10 positive control wells; Rationegative control: average value of the ratios of 10 negative control wells.

[6] = test system: NCI-H358; assay: Cell proliferation inhibitory activity on NCI-H358, 3D model test (agarose colony formation); format: cell-based; details: for anti-cell proliferation activity against KRAS G12C mutant type cells NCI-H358 (in words): 3D model test; for IC50: Homo sapiens, NCI-H358, 3D agarose colony formation, NBT staining
Method: 100 μl of agarose gel with a high concentration was spread in a 96-well plate as the bottom agarose gel layer. Agarose with a low concentration and growth medium containing cells were mixed and then spread on the bottom agar layer, cooled and solidified, then incubated overnight at 37° C. Mother solutions were prepared from the test compounds by using DMSO, and then subjected to gradient elution with RPMI 1640 growth medium. The solutions of test compounds with different concentrations after gradient elution were added to the 96-well plate comprising an upper layer of agar gel-cells. Solvent control well was set up and the plate was incubated in a CO2 incubator. The drug-containing medium was changed during the incubation period and the cell growth situation was observed. After the incubation, the cells were stained with NBT and the number of cell colony formation was counted, and the IC50 values of the compounds inhibiting cell proliferation were derived.

[7] = test system: NCI-H358-derived xenograft tumor; assay: Pharmacodynamics study of NCI-H358-derived xenograft tumor model, combination with Afatinib or Trametinib (test 10); format: in vivo, nude mice; details: i.g. QD×21 days, 3-2 10 mg/kg, Afatinib 10 mg/kg, Trametinib 0.1 mg/kg
Method: Animal species and number: Balb/c Nude; 6 animals per group. Test samples: […] Test groups: blank solvent control group; […] NCI-H358 tumor cells in logarithmic growth phase were cultured in vitro and collected, and inoculated subcutaneously into the right back of nude mice at a quantity of 5×10^6 cells/each. When the tumor volume reached 150-300 mm^3, the tumor-bearing nude mice were randomly grouped. Subsequently, the animals in each group were administered, and the day of the first administration was defined as day 1 of the test. Administration frequency: once a day. General state observation: observation time and frequency: once a day; observation indexes or contents: including but not limited to administration location, appearance and signs, general behavioral activities, mental status, death and other abnormal performance of the animals. The animals were euthanized at the end of the test. Tumor volume calculation: V=½×long diameter×short diameter^2 (mm^3).

KRAS G12C, sequence (P01116 1-188 isoform P01116-2 G12C): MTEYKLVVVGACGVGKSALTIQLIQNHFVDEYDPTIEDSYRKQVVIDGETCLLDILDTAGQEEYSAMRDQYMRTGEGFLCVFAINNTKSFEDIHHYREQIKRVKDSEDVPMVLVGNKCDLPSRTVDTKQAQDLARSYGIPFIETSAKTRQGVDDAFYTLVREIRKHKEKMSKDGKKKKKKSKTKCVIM

| SMILES | anti-cell proliferation activity against KRAS G12C mutant type cells MIA PaCa-2 (in words) [1] | IC50 [1] [nM] | anti-cell proliferation activity against KRAS G12C mutant type cells NCI-H358 (in words) [6] | IC50 [6] [nM] | further results |
| --- | --- | --- | --- | --- | --- |
| [2H]C([2H])=Cc1cccc(F)c1-c1nc2c(cc1Cl)c(N1CCN(C(=O)C=C)C[C@@H]1C)nc(=O)n2-c1c(C)ccnc1C(C)C [Compound 3-20] | significant anti-cell proliferation activity | < 50 | significant anti-cell proliferation activity | < 50 | water and food intake, activity and body weight during the administration period (in words) [2]: no significant abnormality was showed; IC50 ([3]; Homo sapiens, NCI-H358, test 8, method of test 3, read-out: IC50 of proliferation inhibitory activity of the compound on NCI-H358 cell line): 10 nM; cell proliferation inhibitory activity of NCI-H358 compared with AMG510 (in words) ([3]; test 8): better than AMG510; inhibition effect on the growth of subcutaneously transplanted tumors derived from pancreatic cancer MIA paca-2 cells in nude mice (in words) ([4]; 10 mg/kg QD×15 days): significant inhibition effect; Tumor inhibition rate (%) ([4]; MIA PaCa-2 xenograft, nude mice, 10 mg/kg oral gavage QD×15 days): +++ (“+++” represents a tumor inhibition rate of >80%); inhibitory activity on KRAS G12C enzyme compared with AMG510 (in words) [5]: remarkable better; IC50 ([5]; 60 min incubation with enzyme, read-out: IC50 value of the compound on KRAS G12C enzyme activity): 19 nM |
| [2H]C([2H])=Cc1ccccc1-c1nc2c(cc1Cl)c(N1CCN(C(=O)C=C)C[C@@H]1C)nc(=O)n2-c1c(C([2H])([2H])[2H])ccnc1C(C)C [Compound 4-8] |  | < 50 |  | < 50 | MTD at 5 days ([2]; both sexes, mouse, in vivo, oral gavage, 5 days, initially suggested, read-out: maximum tolerated dose): > 800 mg/kg; water and food intake, activity and body weight during the administration period (in words) [2]: no significant abnormality was showed |
| CN(C)C/C=C/C(=O)Nc1cc2c(Nc3ccc(F)c(Cl)c3)ncnc2cc1O[C@H]1CCOC1 [Afatinib] |  |  |  |  | Tumor inhibition rate (%) [7]: + (“+” represents a tumor inhibition rate of <130%) |
| [2H]C([2H])=Cc1cccc(F)c1-c1nc2c(cc1F)c(N1CCN(C(=O)C=C)C[C@@H]1C)nc(=O)n2-c1c(C(C)C)ccnc1C(C)C [Compound 5-3] |  | < 50 |  | < 50 |  |
| C=CC(=O)N1CCN(c2nc(=O)n(-c3c(C)ccnc3C(C)C)c3nc(-c4c(F)cccc4C=C)c(F)cc23)[C@@H](C)C1 [Compound 3-5] | significant anti-cell proliferation activity | < 50 | significant anti-cell proliferation activity | < 50 |  |
| [2H]C([2H])=Cc1ccccc1-c1nc2c(cc1Cl)c(N1CCN(C(=O)C=C)C[C@@H]1C)nc(=O)n2-c1c(C(C)C)ccnc1C(C)C [Compound 5-8] |  | < 50 |  | < 50 |  |
| CC(=O)Nc1cccc(-n2c(=O)n(C3CC3)c(=O)c3c(Nc4ccc(I)cc4F)n(C)c(=O)c(C)c32)c1 [Trametinib] |  |  |  |  | Tumor inhibition rate (%) [7]: + (“+” represents a tumor inhibition rate of <130%) |
| C=CC(=O)N1CCN(c2nc(=O)n(-c3c(C(C)C)ccnc3C(C)C)c3nc(-c4ccccc4C=C)c(Cl)cc23)[C@@H](C)C1 [Compound 5-24] |  | < 50 |  | < 50 |  |
| [2H]C([2H])=Cc1cccc(F)c1-c1nc2c(cc1F)c(N1CCN(C(=O)C=C)C[C@@H]1C)nc(=O)n2-c1c(C)ccnc1C(C)C [Compound 3-19] | significant anti-cell proliferation activity | < 50 | significant anti-cell proliferation activity | < 50 |  |
